Laboratory results reported in patent US8053578B2, “Alpha-fluoroalkyl dihydrotetrabenazine imaging agents and probes” (General Electric Company, priority 2007, dated 2011).

Biological target: T1, VMAT-2 (Homo sapiens, UniProt Q05940)
T1 construct: Novascreen Biosciences Corporation (contract assay provider) protocol Cat. No. 100-0751
Test: VMAT-2 binding affinity measurement (Novascreen protocol Cat. No. 100-0751)
Conditions: for Ki: Novascreen Biosciences protocol Cat. No. 100-0751; for VMAT-2 binding affinity, in words, relative to (+)-DTBZ control (Compound 18): summary of the Table 9 data
Procedure: In addition, the VMAT-2 binding affinity of a fluoroalkyl tetrabinazine carbinol compound 38 bearing an acetoxy group at ring position-2 was also measured. VMAT-2 binding affinity measurements were carried out by Novascreen Biosciences Corporation (Hanover, Md., USA) using protocol Cat. No. 100-0751. Novascreen, Inc. is a commercial provider of biological assays for the pharmaceutical industry.

T1 sequence (Q05940 whole entry, species assumed): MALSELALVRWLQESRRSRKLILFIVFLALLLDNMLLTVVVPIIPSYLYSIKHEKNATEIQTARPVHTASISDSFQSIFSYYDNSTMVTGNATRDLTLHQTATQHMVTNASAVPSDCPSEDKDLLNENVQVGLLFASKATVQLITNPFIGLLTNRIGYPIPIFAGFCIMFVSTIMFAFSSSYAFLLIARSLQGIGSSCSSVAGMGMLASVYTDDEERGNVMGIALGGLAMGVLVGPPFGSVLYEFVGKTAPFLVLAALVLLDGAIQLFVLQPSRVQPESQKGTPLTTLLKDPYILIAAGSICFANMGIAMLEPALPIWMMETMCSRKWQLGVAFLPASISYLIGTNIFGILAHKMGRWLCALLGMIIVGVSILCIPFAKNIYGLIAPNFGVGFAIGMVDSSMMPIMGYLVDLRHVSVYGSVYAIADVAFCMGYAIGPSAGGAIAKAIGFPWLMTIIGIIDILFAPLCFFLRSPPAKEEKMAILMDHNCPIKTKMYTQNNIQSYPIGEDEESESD

Row | SMILES | Ki [nM] | VMAT-2 binding affinity, in words, relative to (+)-DTBZ control (Compound 18)
1 | COc1cc2c(cc1OC)[C@H]1C[C@@H](O)[C@H](CCCC[19F])CN1CC2 [Compound 31] | 6.4 | very high binding affinity
2 | COc1cc2c(cc1OC)[C@H]1C[C@@](C#CCF)(OC(C)=O)[C@H](CC(C)C)CN1CC2 [Compound 38] | – | somewhat lower yet still robust binding activity
3 | COc1cc2c(cc1OC)[C@H]1C[C@](O)(C#CCF)[C@H](CC(C)C)CN1CC2 [Compound 39] | – | somewhat lower yet still robust binding activity

The remaining lines, values ahead:

Row | Ki [nM] | VMAT-2 binding affinity, in words, relative to (+)-DTBZ control (Compound 18) | SMILES
4 | 2.6 | very high binding affinity | COc1cc2c(cc1OC)[C@H]1C[C@H](O)[C@H](CC(C)(C)CC[19F])CN1CC2 [Compound 2-epi-32]
5 | 0.45 | very high binding affinity | COc1cc2c(cc1OC)[C@H]1C[C@@H](O)[C@H](CC(C)(C)CC[19F])CN1CC2 [Compound 32]
